{
  "source": "patent US11298569B2",
  "about": "(priority 2016, dated 2022)",
  "key": {"[1]": {"tested_on": "Cx3cr1-cre::Panx1^flx/flx mice", "assay": "Naloxone-precipitated morphine withdrawal behaviours in mice", "format": "in vivo, mouse", "settings": "for morphine withdrawal: morphine-dependent Panx1-expressing mice, 15 minutes prior to naloxone", "protocol": "(§1) Control rats and mice received saline and were challenged with naloxone on day 5. […] Jumping, teeth chattering, wet-dog shakes, headshakes, and grooming behaviors were evaluated at 5-min intervals for a total test period of 30 minutes and a standardized score of 0 to 3 was assigned to each behavior. Allodynia, piloerection, salivation, ejaculation, and tremorsitwitchina were also evaluated, with one point given to the presence of the behavior during each 5-min interval. All signs were counted and compiled to yield a cumulative withdrawal score. Rats and mice were weighed before and after naloxone challenge to calculate weight loss. In all behavioral studies, experimenters were blind to the drug treatments and genetic profile of rats and mice.\n(§2) All control animals received intrathecal saline."}, "Panx1 [2]": {"target": "T1, Panx1 (Mus musculus, UniProt Q9JIP4)", "T1 construct": "endogenous in cells; host or cells: BV-2 microglia", "T1 sequence (Q9JIP4 whole entry)": "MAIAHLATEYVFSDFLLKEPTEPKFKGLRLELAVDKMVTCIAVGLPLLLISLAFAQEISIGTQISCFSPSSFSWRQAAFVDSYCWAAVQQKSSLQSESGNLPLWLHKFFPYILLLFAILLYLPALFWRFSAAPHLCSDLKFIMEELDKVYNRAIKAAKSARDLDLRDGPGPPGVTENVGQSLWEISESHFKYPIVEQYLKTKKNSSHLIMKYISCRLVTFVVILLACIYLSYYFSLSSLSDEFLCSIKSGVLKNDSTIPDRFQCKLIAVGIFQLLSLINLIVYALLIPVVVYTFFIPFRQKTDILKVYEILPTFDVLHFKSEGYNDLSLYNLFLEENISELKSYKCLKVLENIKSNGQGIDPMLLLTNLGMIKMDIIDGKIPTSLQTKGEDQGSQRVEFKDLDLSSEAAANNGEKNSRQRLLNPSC", "format": "cell-based", "settings": "for ATP release: morphine-treated cultured microglia stimulated with naloxone", "protocol": "(§3) BV2 microglia were maintained in DMEM media (Gibco) containing 10% FBS and 1% Pen-Strep at 37° C. with 5% CO2.\nATP level were detected using bioluminescence by combining samples with recombinant firefly luciferase and its substrate D-luciferin (ATP Determination Kit, Life Technologies). The ATPase inhibitor (ARL67156, 1 μM, Sigma) was added to the ECS or ACSF to decrease breakdown of ATP, and samples were incubated in medium for 30 minutes prior to naloxone stimulation to reduce mechanically-induced ATP release. Samples were stimulated with naloxone (10 μM) for 30 minutes, at which point the supernatant was collected. Samples were read immediately after collection using a FilterMax F5 plate reader at 28° C. For experiments for BV-2 microglial cultures, cells were incubated in ^10panx (10 μM), ^scrpanx (10 μM), probenecid (1 mM), mefloquine (40 μM) or ECS for 10 minutes prior to naloxone stimulation. Final ATP measurement was expressed relative to control samples (saline treated and ECS stimulated) from the same plate. For ATP release in spinal cord slices, tamoxifen or vehicle treated Cx3cr1::Panx1^flx/flx mice were perfused with ice-cold oxygenated sucrose-substituted ACSF, and the spinal cord isolated by hydraulic extrusion. The lumbar segment of the spinal cord was sliced into 300 μm sections, and incubated in oxygenated 37° C. ACSF for 1 hour. Spinal cord slices were then transferred to room temperature oxygenated ACSF and stimulated with naloxone. For quantification, ATP release was normalized to total protein of each sample."}, "Panx1 [3]": {"target": "T1, Panx1", "format": "cell-based", "settings": "for naloxone potentiation of Panx1 activation (YO-PRO-3 dye uptake): morphine-treated BV-2 microglial cultures, 30 minutes post-BzATP; for BzATP-evoked YO-PRO-1 uptake: morphine-treated microglia, BzATP 150 μM, drug 10 μM", "protocol": "as §3\nFollowing a 5-min baseline recording, cells were stimulated with BzATP (150 μM, Sigma) and dye-uptake was recorded for 30 minutes. Cell viability was assessed immediately after 30 minute recording by application of ionomycin (1 μM, Sigma). YO-PRO-1 dye fluorescent emission (491/509) or YO-PRO-3 dye fluorescent emission (612/631) was detected at 37° C. using a FilterMax F5 plate reader (Molecular Devices). Drugs used include ^10panx, ^scrpanx, and naloxone, all of which were used at 10 μM. Drugs were bath applied in YO-PRO-1 dye and incubated at 37° C. for 10 minutes prior to baseline recording. Fluorescent emission at 30 minutes post BzATP application was calculated as percent change from baseline. Representative images of BV-2 YO-PRO-1 dye uptake were taken at room temperature using an inverted microscope (Nikon Eclipse Ti C1S1 Spectral Confocal) with images take at 5 minute intervals for 30 minutes using EasyRatioPro software (PTI). To assess Panx1 function in Cx3cr1::Panx1^flx/flx adult microglia, neuron-glia mixture culture was isolated from adult mice treated with tamoxifen or vehicle for 5 days, then plated in DMEM containing 10% FBS and 1% Pen-Strep and incubated overnight at 37° C. with 5% CO2. Cells were washed and incubated with DAPI (1:10,000) for 10 minutes, and then incubated in YO-PRO-3 dye. Microglia were identified from mixed adult neuronal-glia culture by endogenous expression of eYFP. Fluorescence of individual eYFP positive microglia was recorded for a 5 minute baseline period and then for 30 minutes post BzATP stimulation (300 μM). Fluorescent emission at 30 minutes was calculated and as percent change from baseline."}, "morphine-dependent rats": {"tested_on": "morphine-dependent rats", "assay": "Naloxone-precipitated morphine withdrawal behaviours in rats", "format": "in vivo, rat", "settings": "for morphine withdrawal: morphine-dependent rats", "protocol": "as §1, §2\nBoth mefloquine and probenecid were reconstituted in β-cyclodextrin (Sigma), and control animals received systemic β-cyclodextrin."}, "Panx1 [4]": {"tested_on": "Panx1", "assay": "Western blot of total Panx1 protein in BV-2 microglial cell line", "format": "cell-based", "settings": "morphine for 5-days", "protocol": "(§4) Rat spinal cord tissue was rapidly dissected and homogenized in RIPA buffer containing 20 mM TrisHCl (pH 7.5), 150 mM NaCl, and 0.5% Tween-20. Cultured microglia were harvested in 150 μL lysis buffer containing 50 mM TrisHCl, 150 mM NaCl, 10 mM EDTA, 0.1% Triton-X, and 5% Glycerol. Both RIPA and lysis buffers contained protease inhibitors (Sigma) and phosphatase inhibitors (GBiosciences). Total protein was measured using a BioRad RC DC Protein Assay Kit (BioRad) or Pierce BCA Protein Assay Kit (Thermo Scientific). Samples were heated at 95° C. for 5-min in loading buffer (350 mM Tris, 30% glycerol, 1.6% SDS, 1.2% bromophenol blue, 6% β-mercaptoethanol) then electrophoresed on a precast SDS gel (4-12% Tris-HCl, BioRad) and transferred onto a nitrocellulose membrane. […] Membranes were washed and incubated for 2 h at 20-25° C. in fluorophore-conjugated secondary antibodies (anti-rabbit and anti-mouse conjugated IR Dyes 1:5000, Mandel Scientific; or Fluorescent TrueBlot anti-rabbit IgG Dylight 1:1000, Rockland) then quantified by direct detection of secondary antibody fluorescence at 680 and 800 nm (LICOR Odyssey CLx). Band intensity was quantified using Image J, normalized to β-actin and expressed relative to control samples. […]"}, "Panx1 [5]": {"tested_on": "Panx1", "assay": "Western blot of total Panx1 protein in rat primary microglia cultures", "format": "cell-based", "settings": "morphine for 5-days", "protocol": "as §4"}, "[6]": {"tested_on": "CD11b-positive cells in the lumbar spinal cords", "settings": "mouse", "procedure": "Mice with microglial specific deletion of Panx1 were generated using a Cre-loxP system. […] Progeny genotype was screened using PCR, and homozygous Panx1^flx/flx and Cx3cr1-cre mice were bred and backcrossed for 8 generations to yield the conditional Cx3cr1::Panx1^flx/flx knock-out mice. To induce Cre recombination, mice were injected intraperitoneally with 1 mg per day tamoxifen (Sigma) for 5 days. Wild-type mice were littermate mice that received vehicle injections (sunflower oil with 10% ethanol) for 5 days, while tamoxifen-related effects were controlled for using Panx1^flx/flx littermate mice that received 5 days of tamoxifen injections."}},
  "note": "Read-outs that look alike come from different tables or passages of the source.",
  "data": [
    {"molecule": "CCN(CC)c1ncnc2c1ncn2[C@@H]1O[C@H](COP(=O)(O)OP(=O)(O)C(Br)(Br)P(=O)(O)O)[C@@H](O)[C@H]1O", "note": "[ARL67156]", "values": [
      {"measurement": "morphine withdrawal", "setting": "[1]; intrathecal 10 nmoles", "value": "exacerbated"}
    ]},
    {"molecule": "Nc1ncnc2c1ncn2[C@@H]1O[C@H](COP(=O)(O)OP(=O)(O)OP(O)(O)=S)[C@@H](O)[C@H]1O", "note": "[ATPγS]", "values": [
      {"measurement": "withdrawal behaviors", "setting": "[1]; morphine-treated Panx1-deficient mice, intrathecal 100 μM together with naloxone challenge", "value": "restored a spectrum of withdrawal behaviors"},
      {"measurement": "withdrawal behaviors", "setting": "[1]; saline-treated Panx1-deficient mice, intrathecal 100 μM", "value": "not observed"}
    ]},
    {"molecule": "OC(c1cc(C(F)(F)F)nc2c(C(F)(F)F)cccc12)C1CCCCN1", "note": "(stereo not shown) [mefloquine]", "values": [
      {"measurement": "ATP release", "setting": "Panx1 [2]; mefloquine 40 μM", "value": "suppressed"},
      {"measurement": "naloxone potentiation of Panx1 activation (YO-PRO-3 dye uptake)", "setting": "Panx1 [3]", "value": "blocked"},
      {"measurement": "morphine withdrawal", "setting": "morphine-dependent rats; systemic 45 mg/kg i.p. 1-hour prior to naloxone challenge", "value": "significantly ameliorated"}
    ]},
    {"molecule": "CN1CC[C@]23c4c5ccc(O)c4O[C@H]2[C@@H](O)C=C[C@H]3[C@H]1C5", "note": "[morphine]", "values": [
      {"measurement": "total Panx1 protein levels", "setting": "Panx1 [4]", "value": "marked increase"},
      {"measurement": "total Panx1 protein levels", "setting": "Panx1 [5]", "value": "marked increase"}
    ]},
    {"molecule": "C=CCN1CC[C@]23c4c5ccc(O)c4O[C@H]2C(=O)CC[C@@]3(O)[C@H]1C5", "note": "[naloxone]", "values": [
      {"measurement": "ATP in microglial supernatant", "setting": "Panx1 [2]; naloxone applied to microglia in culture (10 μM, 30 minutes)", "value": "evoked the release of ATP"},
      {"measurement": "BzATP-evoked YO-PRO-1 uptake", "setting": "Panx1 [3]", "value": "further potentiated"}
    ]},
    {"molecule": "CCCN(CCC)S(=O)(=O)c1ccc(C(=O)O)cc1", "note": "[probenecid]", "values": [
      {"measurement": "ATP release", "setting": "Panx1 [2]; probenecid 1 mM", "value": "suppressed"},
      {"measurement": "naloxone potentiation of Panx1 activation (YO-PRO-3 dye uptake)", "setting": "Panx1 [3]", "value": "blocked"},
      {"measurement": "morphine withdrawal", "setting": "morphine-dependent rats; systemic 50 mg/kg i.p. 1-hour prior to naloxone challenge", "value": "significantly ameliorated"}
    ]},
    {"molecule": "CC/C(=C(\\c1ccccc1)c1ccc(OCCN(C)C)cc1)c1ccccc1", "note": "[tamoxifen]", "values": [
      {"measurement": "recombination in Cre^ER reporter eYFP / CD11b-positive cells", "setting": "[6]", "value": "95±3.1", "unit": "%"},
      {"measurement": "morphine withdrawal responses", "setting": "[1]; tamoxifen given to Panx1^loxp/loxp mice without inducible Cre-recombinase", "value": "does not affect morphine withdrawal"}
    ]},
    {"molecule": "FSVYWAQADR (scrPanx) [^scrpanx]", "values": [
      {"measurement": "BzATP-evoked YO-PRO-1 uptake", "setting": "Panx1 [3]", "value": "unaffected"}
    ]},
    {"molecule": "WRQAAFVDSY (10panx) [^10panx]", "values": [
      {"measurement": "naloxone-evoked release of ATP", "setting": "Panx1 [2]; cultured microglia, ^10panx 10 μM for 10 minutes prior to naloxone", "value": "blocked"},
      {"measurement": "BzATP-evoked YO-PRO-1 uptake", "setting": "Panx1 [3]", "value": "blocked"},
      {"measurement": "naloxone-precipitated morphine withdrawal", "setting": "[1]; Panx1-expressing mice, intrathecal 10 μg before naloxone challenge", "value": "significantly attenuated"},
      {"measurement": "naloxone-precipitated morphine withdrawal", "setting": "[1]; mice lacking microglial Panx1, intrathecal 10 μg", "value": "did not further reduce withdrawal"},
      {"measurement": "withdrawal behaviours", "setting": "morphine-dependent rats; rats after 5-days of morphine, intrathecal 10 μg, 60-minutes prior to naloxone challenge", "value": "significantly attenuated"}
    ]},
    {"molecule": "apyrase", "values": [
      {"measurement": "morphine withdrawal", "setting": "[1]; intrathecal 10 units", "value": "striking reduction in withdrawal"}
    ]}
  ]
}
